Experiment: xn = mol fraction of the nth substance listed

CCCBr + Cc1cc(C)cc(C)c1
308.15 K, 101 kPa
Conditions | viscosity [mPa·s]
x2 = 0.0819 | 0.4452
x2 = 0.1828 | 0.4586
x2 = 0.298 | 0.4744
x2 = 0.4146 | 0.4872
x2 = 0.5062 | 0.4995
x2 = 0.5971 | 0.5145
x2 = 0.7035 | 0.5257
x2 = 0.8027 | 0.541
x2 = 0.8945 | 0.5538

CCCBr + Cc1ccc(C)cc1
308.15 K, 101 kPa
Conditions | viscosity [mPa·s]
x2 = 0.1032 | 0.4446
x2 = 0.2012 | 0.4528
x2 = 0.3051 | 0.4596
x2 = 0.4051 | 0.469
x2 = 0.503 | 0.477
x2 = 0.6038 | 0.4865
x2 = 0.7055 | 0.4971
x2 = 0.8019 | 0.5027
x2 = 0.8965 | 0.5124

Nc1ccccc1 + Cc1cccc(C)c1
303 K, 101.33 kPa
Conditions | viscosity [mPa·s]
x1 = 0.1 | 0.815
x1 = 0.2 | 1.025
x1 = 0.3 | 1.316
x1 = 0.4 | 1.708
x1 = 0.5 | 2.076
x1 = 0.6 | 2.225
x1 = 0.7 | 2.432
x1 = 0.8 | 2.675
x1 = 0.9 | 2.875

CC(C)(C)O + Cc1ccccc1
viscosity [mPa·s]
Conditions | 298.15 K | 303.15 K | 308.15 K | 313.15 K | 318.15 K
101 kPa, x2 = 0.1121 | 2.432 | 1.991 | 1.63 | 1.282 | 1.05
101 kPa, x2 = 0.1785 | 1.717 | 1.462 | 1.245 | 1.027 | 0.8744
101 kPa, x2 = 0.3151 | 1.113 | 0.9909 | 0.8824 | 0.7677 | 0.6837
101 kPa, x2 = 0.3919 | 0.9507 | 0.8583 | 0.7749 | 0.6855 | 0.6188
101 kPa, x2 = 0.4958 | 0.7975 | 0.7306 | 0.6693 | 0.6025 | 0.552
101.33 kPa, x2 = 0.1003 | – | 1.981 | 1.622 | 1.328 | –
101.33 kPa, x2 = 0.1723 | – | 1.455 | 1.239 | 1.059 | –
101.33 kPa, x2 = 0.3109 | – | 0.986 | 0.878 | 0.781 | –
101.33 kPa, x2 = 0.3886 | – | 0.854 | 0.771 | 0.696 | –
101.33 kPa, x2 = 0.4942 | – | 0.727 | 0.666 | 0.611 | –
101.33 kPa, x2 = 0.6059 | – | 0.644 | 0.594 | 0.548 | –
101.33 kPa, x2 = 0.7118 | – | 0.588 | 0.547 | 0.51 | –
101.33 kPa, x2 = 0.8135 | – | 0.549 | 0.518 | 0.486 | –
101.33 kPa, x2 = 0.9107 | – | 0.521 | 0.49 | 0.46 | –

CCCC[n+]1ccn(C)c1.[Cl][Al-]([Cl])([Cl])[Cl] + Cc1ccccc1
101 kPa, x2 = 0.37
Conditions | viscosity [mPa·s]
293.15 K | 18.2
298.15 K | 16.6
303.15 K | 14.6
308.15 K | 13.1
313.15 K | 11.6
318.15 K | 10.5
323.15 K | 9.6

Nc1ccccc1 + Cc1ccccc1
viscosity [mPa·s], 101 kPa
Conditions | 298.15 K | 303.15 K | 308.15 K | 313.15 K
x1 = 0.0977 | 0.62 | 0.576 | 0.545 | 0.495
x1 = 0.1155 | – | – | 0.5602 | –
x1 = 0.116 | 0.5955 | – | – | –
x1 = 0.198 | 0.701 | 0.653 | 0.615 | 0.57
x1 = 0.2272 | 0.681 | – | – | –
x1 = 0.2298 | – | – | 0.7052 | –
x1 = 0.3004 | 0.814 | 0.752 | 0.72 | 0.65
x1 = 0.3224 | – | – | 0.7335 | –
x1 = 0.3354 | 0.8149 | – | – | –
x1 = 0.3917 | 0.94 | 0.867 | 0.803 | 0.74
x1 = 0.4199 | – | – | 0.8736 | –
x1 = 0.4399 | 0.9747 | – | – | –
x1 = 0.4993 | 1.146 | 1.074 | 0.954 | 0.872
x1 = 0.5404 | 1.169 | – | – | –
x1 = 0.5446 | – | – | 1.039 | –
x1 = 0.6003 | 1.406 | 1.253 | 1.139 | 1.03
x1 = 0.6191 | – | – | 1.19 | –
x1 = 0.6382 | 1.427 | – | – | –
x1 = 0.69 | – | – | 1.391 | –
x1 = 0.6978 | 1.723 | 1.522 | 1.367 | 1.216
x1 = 0.7815 | – | – | 1.647 | –
x1 = 0.8009 | 2.199 | 1.907 | 1.696 | 1.486
x1 = 0.835 | – | – | 1.891 | –
x1 = 0.8998 | 2.822 | 2.423 | 2.122 | 1.863

CCCBr + ClC(Cl)(Cl)Cl
viscosity [mPa·s], 101 kPa
Conditions | 293.15 K | 303.15 K | 313.15 K | 323.15 K
x1 = 0.143 | 0.855 | 0.76 | 0.678 | 0.61
x1 = 0.294 | 0.775 | 0.691 | 0.621 | 0.562
x1 = 0.445 | 0.7 | 0.625 | 0.565 | 0.512
x1 = 0.625 | 0.637 | 0.581 | 0.52 | 0.472

Source: the CheMixHub viscosity set
